Laboratory results from patent US9012439B2, “Use of electrophilic compounds for inducing platelet production or maintaining platelet function” (University of Rochester, priority 2007, dated 2015).

Assays:
[1] = test system: primary human megakaryocytes; assay: Reactive oxygen species production in primary human megakaryocytes; assay type: cell-based; settings: 1 h and 6 h
Protocol: Human CD34+ cord blood cells were obtained from the National Disease Research Interchange (NDRI, Philadelphia, Pa.). Cells were plated at 2.5×10^5 cells per well in a 12-well plate and cultured in serum-free medium as previously described (Zeuner et al., “Chemotherapy-induced Thrombocytopenia Derives from the Selective Death of Megakaryocyte Progenitors and Can Be Rescued by Stem Cell Factor,” Cancer Res 67:4767-4773 (2007), which is hereby incorporated by reference in its entirety) and supplemented with 100 ng/mL of rhTPO. After 14 days in culture, megakaryocytes were identified by staining with a CD61-FITC antibody and analyzed on a BD Biosciences FACSCalibur flow cytometer. Data were analyzed using FlowJo software (Treestar, Ashland, Oreg.). Cell images were captured using an inverted microscope (Olympus IX81). Ten μM carboxy-H2DCFDA was added to cells for 20 min at RT. The cells were washed and immediately analyzed by flow cytometry. Five μM of MitoSOX Red dye in HBSS containing Mg^2+ and Ca^2+ was added to the cells for 15 min at 37° C. The cells were washed in HBSS and analyzed by flow cytometry.

[2] = test system: Meg-01 cells; assay: DNA content analysis of Meg-01 cells; assay type: cell-based, human; settings: 10 μM
Protocol: Cells were fixed in 95% ethanol, treated with RNAse (Sigma) followed by 20 μg/mL propidium iodide (Sigma) to stain DNA, and analyzed by flow cytometry.

[3] = test system: C57BL/6 mice; assay: Irradiation-induced thrombocytopenia (5 Gy total body irradiation); assay type: in vivo, mouse (C57BL/6)
Protocol: Seven or 8-week-old male C57BL/6 mice (Jackson Laboratories) were either exposed to 5 Gy cesium (Cs^137) total body irradiation (TBI) using a Model 8114 6000 Curie Shepherd Cs^137 irradiator (approximately 3200 Curie sealed Cs^137 source) with a dose rate of […] or left unexposed. Mice (n=4) received intravenous injections of vehicle (8% DMSO) or 15d-PGJ2 (1 mg/kg) or CDDO-Me (250 μg/kg) for 4 consecutive days from day 1 (days 1, 2, 3 and 4 post-irradiation). Blood was obtained from the aorta or the orbital sinus. Platelets were counted prior to radiation exposure and after radiation exposure on day 10, day 22, and day 31 in Example 7, or days 4, 10, 16, and 21 in Example 9 using the Heska® CBC-Diff™ Veterinary Analyzer (Fort Collins, Colo.). Data are expressed as average platelet counts from two separate experiments. For the unirradiated mice, platelets were counted on day 4, day 10, and day 15 in Example 7 or on the same days in Example 9.

Structure (SMILES): CCCCCC=CC=C1C(=O)C=C[C@@H]1CC=CCCCC(=O)O [15d-PGJ2, 15-deoxy-Δ^12,14 prostaglandin J2]
- percentage of ROS positive cells, Mitosox Red staining [1]: increase in the percentage of ROS positive cells
- percentage of ROS positive cells, carboxy-H2DCFDA staining [1]: increase in the percentage of ROS positive cells
- DNA content ([2]; 24 h and 48 h): unchanged
- DNA content ([2]; 72 h): increased DNA content
- weight versus vehicle-treated mice ([3]; 1 mg/kg IV for 4 consecutive days): no differences in weight
- platelet numbers ([3]; 5 Gy, 1 mg/kg IV days 1-4, by day 31): approximately 800,000 /μL
- platelet recovery compared to vehicle mice ([3]; 5 Gy, 1 mg/kg IV days 1-4, day 22 and day 31): accelerated platelet recovery
